Results published in patent publication US12239643B2, “Therapeutic agent for inflammatory diseases, autoimmune diseases, fibrotic diseases, and cancer diseases” (MEIJI SEIKA PHARMA CO., LTD., priority 2018, dated 2025).

test system: PDE4; assay: Evaluation of PDE4 inhibitory activity, scintillation proximity assay; assay type: biochemical; settings: scintillation proximity assay; class symbols of Evaluation 1; read-out: PDE4 Inhibitory Activity (concentration for the inhibition rate of 50%, IC50), Evaluation 1
Summary of the method: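 SPA with [2,8-3H]-cAMP and diluted PDE4 enzyme preparation in 50 mM Tris-HCl pH 7.4, 8.3 mM MgCl2, 1.7 mM EGTA, 3 mg/mL BSA, 120 min at room temperature. Product captured on ZnSO4-containing YSi-SPA beads, scintillation counted; IC50 from inhibition curves vs DMSO control and no-enzyme blank.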

Row | Compound | IC50 [nM]
1 | CC(O)COC(c1cc(-c2nccs2)c2oc(N3CC4CCC(C3)N4)nc2c1)C(F)(F)F (centres unmarked) [Example 155, 1-(1-(2-(3,8-Diazabicyclo[3.2.1]octan-3-yl)-7-(thiazol-2-yl)benzo[d]oxazol-5-yl)-2,2,2-trifluoroethoxy)propan-2-ol] | < 100
2 | CC(=O)Nc1cc(-c2nccs2)c2oc(N3CC4CCC(C3)N4)nc2c1 [Example 50, N-(2-(3,8-diazabicyclo[3.2.1]octan-3-yl)-7-(thiazol-2-yl)benzo[d]oxazol-5-yl)acetamide] | < 100
3 | CCOC(=O)c1cc(-c2nccs2)c2oc(N3CC4CCC(C3)N4)nc2c1C(F)(F)F [Example 163, Ethyl 2-(3,8-diazabicyclo[3.2.1]octan-3-yl)-7-(thiazol-2-yl)-4-(trifluoromethyl)benzo[d]oxazole-5-carboxylate] | < 100
4 | N#CCOc1cc(-c2nccs2)c2oc(N3CC4CCC(C3)N4)nc2c1 [Example 73, 2-((2-(3,8-Diazabicyclo[3.2.1]octan-3-yl)-7-(thiazol-2-yl)benzo[d]oxazol-5-yl)oxy)acetonitrile] | < 100
5 | CC(C)(O)c1cc(-c2nccs2)c2oc(N3CC4CCC(C3)N4)nc2c1 [Example 172, 2-(2-(3,8-Diazabicyclo[3.2.1]octan-3-yl)-7-(thiazol-2-yl)benzo[d]oxazol-5-yl)propan-2-ol] | < 100
6 | CCOC(=O)c1cc(-c2nccs2)c2oc(N3CC4CC(C3)N4)nc2c1C(F)(F)F [Example 165, Ethyl 2-(3,6-diazabicyclo[3.1.1]heptan-3-yl)-7-(thiazol-2-yl)-4-(trifluoromethyl)benzo[d]oxazole-5-carboxylate] | < 100
7 | CCOC(c1cc(-c2nccs2)c2oc(N3CC4CC(C3)N4)nc2c1)C(F)(F)F (centres unmarked) [Example 150, 2-(3,6-Diazabicyclo[3.1.1]heptan-3-yl)-5-(1-ethoxy-2,2,2-trifluoroethyl)-7-(thiazol-2-yl)benzo[d]oxazole] | < 100
8 | CC(=O)Nc1cc(-c2nccs2)c2oc(N3CC4CC(C3)N4)nc2c1 [Example 49, N-(2-(3,6-diazabicyclo[3.1.1]heptan-3-yl)-7-(thiazol-2-yl)benzo[d]oxazol-5-yl)acetamide] | 100 to 1000
9 | OCC(CO)COc1cc(-c2nccs2)c2oc(N3CC4CCC(C3)N4)nc2c1 [Example 71, 2-(((2-(3,8-Diazabicyclo[3.2.1]octan-3-yl)-7-(thiazol-2-yl)benzo[d]oxazol-5-yl)oxy)methyl)propane-1,3-diol] | < 100
10 | COC(C)(C)c1cc(-c2nccs2)c2oc(N3CC4CCC(C3)N4)nc2c1 [Example 175, 2-(3,8-Diazabicyclo[3.2.1]octan-3-yl)-5-(2-methoxypropan-2-yl)-7-(thiazol-2-yl)benzo[d]oxazole] | < 100
11 | FC(F)(F)Oc1ccc(-c2nccs2)c2oc(N3CC4CCC(C3)N4)nc12 [Example 28, 2-(3,8-Diazabicyclo[3.2.1]octan-3-yl)-7-(thiazol-2-yl)-4-(trifluoromethoxy)benzo[d]oxazole] | < 100
12 | O=C(NCc1ccccc1)c1cc(-c2nccs2)c2oc(N3CC4CCC(C3)N4)nc2c1 [Example 98, N-benzyl-2-(3,8-diazabicyclo[3.2.1]octan-3-yl)-7-(thiazol-2-yl)benzo[d]oxazole-5-carboxamide] | < 100
13 | CS(=O)(=O)c1cc(-c2nccs2)c2oc(N3CC4CCC(C3)N4)nc2c1 [Example 45, 2-(3,8-Diazabicyclo[3.2.1]octan-3-yl)-5-(methylsulfonyl)-7-(thiazol-2-yl)benzo[d]oxazole] | < 100
14 | COCc1cc(-c2nccs2)c2oc(N3CC4CCC(C3)N4)nc2c1C(F)(F)F [Example 167, 2-(3,8-Diazabicyclo[3.2.1]octan-3-yl)-5-(methoxymethyl)-7-(thiazol-2-yl)-4-(trifluoromethyl)benzo[d]oxazole] | < 100
15 | Clc1ccc(-c2nccs2)c2oc(N3CC4CC(C3)N4)nc12 [Example 37, 2-(3,6-Diazabicyclo[3.1.1]heptan-3-yl)-4-chloro-7-(thiazol-2-yl)benzo[d]oxazole] | < 100
16 | COC(C)(c1cc(-c2nccs2)c2oc(N3CC4CCCC(C3)N4)nc2c1)C(F)(F)F (centres unmarked) [Example 162] | < 100
17 | C[S+]([O-])c1cc(-c2nccs2)c2oc(N3CC4CC(C3)N4)nc2c1 (centres unmarked) [Example 43, 2-(3,6-Diazabicyclo[3.1.1]heptan-3-yl)-5-(methylsulfinyl)-7-(thiazol-2-yl)benzo[d]oxazole] | < 100
18 | OCc1ccc(-c2nccs2)c2oc(N3CC4CCC(C3)N4)nc12 [Example 132, (2-(3,8-Diazabicyclo[3.2.1]octan-3-yl)-7-(thiazol-2-yl)benzo[d]oxazol-4-yl)methanol] | < 100
19 | CCOC(=O)c1cc(-c2nccs2)c2oc(N3CC4CCCC(C3)N4)nc2c1C(F)(F)F [Example 164, Ethyl 2-(3,9-diazabicyclo[3.3.1]nonan-3-yl)-7-(thiazol-2-yl)-4-(trifluoromethyl)benzo[d]oxazole-5-carboxylate] | < 100
20 | COC(c1cc(-c2nccs2)c2oc(N3CC4CCC(C3)N4)nc2c1)C(F)(F)F (centres unmarked) [Example 143, 2-(3,8-Diazabicyclo[3.2.1]octan-3-yl)-7-(thiazol-2-yl)-5-(2,2,2-trifluoro-1-methoxyethyl)benzo[d]oxazole] | < 100

same assay, conditions: scintillation proximity assay; read-out: PDE4 Inhibitory Activity (Evaluation 1; concentration for the inhibition rate of 50%)

Row | Compound | IC50 [nM]
21 | CC(C)(O)C(F)(F)Oc1ccc(-c2ccccn2)c2oc(N3CC4CC(C3)N4)nc12 [Example 289, 1-((2-(3,6-Diazabicyclo[3.1.1]heptan-3-yl)-7-(pyridin-2-yl)benzo[d]oxazol-4-yl)oxy)-1,1-difluoro-2-methylpropan-2-ol] | < 100
22 | OC1(c2cc(-c3nccs3)c3oc(N4CC5CCC(C4)N5)nc3c2OC(F)(F)F)CC1 [Example 274, 1-(2-(3,8-Diazabicyclo[3.2.1]octan-3-yl)-7-(thiazol-2-yl)-4-(trifluoromethoxy)benzo[d]oxazol-5-yl)cyclopropan-1-ol] | < 100
23 | OCCOC(c1ccc(-c2nccs2)c2oc(N3CC4CCC(C3)N4)nc12)C(F)(F)F (centres unmarked) [Example 225, 2-(1-(2-(3,8-Diazabicyclo[3.2.1]octan-3-yl)-7-(thiazol-2-yl)benzo[d]oxazol-4-yl)-2,2,2-trifluoroethoxy)ethan-1-ol] | < 100
24 | CC(O)(c1ccc(-c2nccs2)c2oc(N3CC4CC(C3)N4)nc12)C(F)F (centres unmarked) [Example 297, 2-(2-(3,6-Diazabicyclo[3.1.1]heptan-3-yl)-7-(thiazol-2-yl)benzo[d]oxazol-4-yl)-1,1-difluoropropan-2-ol] | < 100
25 | O=S1(=O)CCN(c2ccc(-c3nccs3)c3oc(N4CC5CC(C4)N5)nc23)CC1 [Example 398, 4-(2-(3,6-Diazabicyclo[3.1.1]heptan-3-yl)-7-(thiazol-2-yl)benzo[d]oxazol-4-yl)thiomorpholine 1,1-dioxide] | < 100
26 | OCCOC(c1ccc(-c2nccs2)c2oc(N3CC4CC(C3)N4)nc12)C(F)(F)F (centres unmarked) [Example 227, 2-(1-(2-(3,6-Diazabicyclo[3.1.1]heptan-3-yl)-7-(thiazol-2-yl)benzo[d]oxazol-4-yl)-2,2,2-trifluoroethoxy)ethan-1-ol] | < 100
27 | OC(c1cc(-c2nccs2)c2oc(N3CC4CC(C3)N4)nc2c1OC(F)(F)F)C(F)F (centres unmarked) [Example 292, 1-(2-(3,6-Diazabicyclo[3.1.1]heptan-3-yl)-7-(thiazol-2-yl)-4-(trifluoromethoxy)benzo[d]oxazol-5-yl)-2,2-difluoroethan-1-ol] | < 100
28 | O=C(NO)c1ccc(-c2nccs2)c2oc(N3CC4CC(C3)N4)nc12 [Example 367, 2-(3,6-Diazabicyclo[3.1.1]heptan-3-yl)-N-hydroxy-7-(thiazol-2-yl)benzo[d]oxazole-4-carboxamide] | < 100
29 | COC(C)(C)c1cc(-c2cscn2)c2oc(N3CC4CC(C3)N4)nc2c1OC(F)(F)F [Example 287, 2-(3,6-Diazabicyclo[3.1.1]heptan-3-yl)-5-(2-methoxypropan-2-yl)-7-(thiazol-4-yl)-4-(trifluoromethoxy)benzo[d]oxazole] | < 100
30 | CC(C)(O)COC(c1ccc(-c2cscn2)c2oc(N3CC4CC(C3)N4)nc12)C(F)(F)F (centres unmarked) [Example 284, 1-(1-(2-(3,6-Diazabicyclo[3.1.1]heptan-3-yl)-7-(thiazol-4-yl)benzo[d]oxazol-4-yl)-2,2,2-trifluoroethoxy)-2-methylpropan-2-ol] | < 100
31 | C=CC(F)(F)Oc1ccc(-c2nccs2)c2oc(N3CC4CC(C3)N4)nc12 [Example 351, 2-(3,6-Diazabicyclo[3.1.1]heptan-3-yl)-4-((1,1-difluoroallyl)oxy)-7-(thiazol-2-yl)benzo[d]oxazole] | < 100
32 | FC(F)Oc1ccc(-c2nccs2)c2oc(N3CC4CCC(C3)N4)nc12 [Example 263, 2-(3,8-Diazabicyclo[3.2.1]octan-3-yl)-4-(difluoromethoxy)-7-(thiazol-2-yl)benzo[d]oxazole] | < 100
33 | CON=C(C)c1cc(-c2nccs2)c2oc(N3CC4CCC(C3)N4)nc2c1OC(F)(F)F (mixture of isomers) [Example 218, (E)-1-(2-(3,8-diazabicyclo[3.2.1]octan-3-yl)-7-(thiazol-2-yl)-4-(trifluoromethoxy)benzo[d]oxazol-5-yl)ethan-1-one O-methyloxime and (Z)-1-(2-(3,8-diazabicyclo[3.2.1]octan-3-yl)-7-(thiazol-2-yl)-4-(trifluoromethoxy)benzo[d]oxazol-5-yl)ethan-1-one O-methyloxime] | < 100
34 | COC(C)(C)c1cc(-c2cscn2)c2oc(N3CC4CCC(C3)N4)nc2c1OC(F)(F)F [Example 298, 2-(3,8-Diazabicyclo[3.2.1]octan-3-yl)-5-(2-methoxypropan-2-yl)-7-(thiazol-4-yl)-4-(trifluoromethoxy)benzo[d]oxazole] | < 100
35 | O=C(O)c1ccc(-c2nccs2)c2oc(N3CC4CCC(C3)N4)nc12 [Example 238, 2-(3,8-Diazabicyclo[3.2.1]octan-3-yl)-7-(thiazol-2-yl)benzo[d]oxazole-4-carboxylic acid] | < 100
